The source of these data is patent US10669272B2, “Substituted naphthyridinone compounds useful as T cell activators” (BRISTOL-MYERS SQUIBB COMPANY, priority 2018, dated 2020).

What is called IC50 is the point on the concentration scale where inhibition reaches its midpoint. As a reminder, the EC50 is the concentration at which the effect is half-maximal.

Read-outs that look alike come from different tables or passages of the source.

In experiment [1] the target is T1, human DGKα (Homo sapiens, UniProt P23743).
T1 construct: TVMV protease cleavage site (C); Hexa-His (C); made in house; host or cells: Sf9 insect cells (baculovirus, Bac-to-Bac)
T1 sequence (P23743 with tags, fused parts or gaps): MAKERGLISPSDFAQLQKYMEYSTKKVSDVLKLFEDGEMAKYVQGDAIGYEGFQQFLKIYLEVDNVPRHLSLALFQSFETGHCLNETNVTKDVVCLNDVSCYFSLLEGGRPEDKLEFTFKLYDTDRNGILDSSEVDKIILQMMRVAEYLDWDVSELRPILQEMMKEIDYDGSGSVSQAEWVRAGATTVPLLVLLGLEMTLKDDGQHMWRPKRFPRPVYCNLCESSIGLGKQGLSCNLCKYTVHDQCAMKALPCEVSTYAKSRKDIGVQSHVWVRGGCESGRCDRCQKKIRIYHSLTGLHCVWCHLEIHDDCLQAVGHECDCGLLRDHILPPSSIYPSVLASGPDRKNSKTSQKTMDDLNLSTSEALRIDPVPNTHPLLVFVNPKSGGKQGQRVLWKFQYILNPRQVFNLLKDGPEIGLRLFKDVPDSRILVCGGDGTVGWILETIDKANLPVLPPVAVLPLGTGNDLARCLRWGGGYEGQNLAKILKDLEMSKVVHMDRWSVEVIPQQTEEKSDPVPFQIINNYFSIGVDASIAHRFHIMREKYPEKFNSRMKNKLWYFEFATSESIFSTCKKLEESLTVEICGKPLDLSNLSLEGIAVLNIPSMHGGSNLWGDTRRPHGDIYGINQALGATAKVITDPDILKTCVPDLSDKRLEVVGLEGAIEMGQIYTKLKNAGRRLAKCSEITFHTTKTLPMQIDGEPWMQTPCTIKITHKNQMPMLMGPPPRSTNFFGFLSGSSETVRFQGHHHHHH
Kind of experiment: DGKα LIPGLO assay (extruded liposome substrate), in vitro DGK inhibition. It is filed as biochemical. The following applies: read-out: DGKa LIPGLO IC50.

For experiment [2], the target named is T2, human DGKζ (Homo sapiens, UniProt Q13574).
T2 construct: TVMV protease cleavage site (C); Hexa-His (C); made in house; host or cells: Sf9 insect cells (baculovirus, Bac-to-Bac)
T2 sequence (Q13574 with tags, fused parts or gaps isoform Q13574-4): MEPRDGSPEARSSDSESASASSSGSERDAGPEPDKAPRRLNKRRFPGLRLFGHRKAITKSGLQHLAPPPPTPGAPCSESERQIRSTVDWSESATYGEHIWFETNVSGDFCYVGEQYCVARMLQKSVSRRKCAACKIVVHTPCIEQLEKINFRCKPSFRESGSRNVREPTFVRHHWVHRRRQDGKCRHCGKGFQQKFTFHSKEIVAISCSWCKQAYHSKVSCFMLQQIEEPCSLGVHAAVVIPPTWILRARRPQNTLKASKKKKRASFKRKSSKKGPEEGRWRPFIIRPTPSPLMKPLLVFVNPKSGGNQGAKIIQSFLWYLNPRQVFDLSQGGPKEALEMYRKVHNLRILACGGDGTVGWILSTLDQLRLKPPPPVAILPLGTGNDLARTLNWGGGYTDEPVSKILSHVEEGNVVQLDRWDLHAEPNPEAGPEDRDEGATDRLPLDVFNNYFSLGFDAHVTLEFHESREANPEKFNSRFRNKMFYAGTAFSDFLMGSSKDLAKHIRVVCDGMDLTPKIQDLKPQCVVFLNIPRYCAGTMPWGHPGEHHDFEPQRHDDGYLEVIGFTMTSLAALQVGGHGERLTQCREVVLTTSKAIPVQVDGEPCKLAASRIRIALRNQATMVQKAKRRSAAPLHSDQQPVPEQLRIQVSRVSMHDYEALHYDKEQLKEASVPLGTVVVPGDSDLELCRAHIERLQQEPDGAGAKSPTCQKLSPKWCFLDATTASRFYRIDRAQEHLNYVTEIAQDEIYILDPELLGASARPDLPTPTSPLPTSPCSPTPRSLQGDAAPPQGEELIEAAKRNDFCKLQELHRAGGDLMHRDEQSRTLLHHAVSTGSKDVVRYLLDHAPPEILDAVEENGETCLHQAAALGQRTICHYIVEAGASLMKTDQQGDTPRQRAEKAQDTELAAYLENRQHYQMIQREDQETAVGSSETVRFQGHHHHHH
Kind of experiment: DGKζ LIPGLO assay (extruded liposome substrate), in vitro DGK inhibition. The note with it: read-out: DGKz LIPGLO IC50. It is filed as biochemical.

Experiment [3] has as its system naïve human CD8 T cells. As to the kind of experiment: Human CD8 T cells IFN-γ assay.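 Note: Naïve human CD8 T cells stimulated with plate-bound anti-CD3 and soluble anti-CD28, IFN-γ in supernatant quantified by AlphaLISA and converted to pg/mL.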 It is filed as cell-based. The note with it: read-out: HuCD8 INFG Normalized EC50.
Experiment [4] concerns Human venous whole blood. Kind of experiment: Human whole blood IFN-γ assay.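 Note: blood from healthy donors exposed to compound for 1 h before stimulation with anti-CD3 and anti-CD28 at 1 µg/mL each, IFN-γ quantified in supernatant by AlphaLISA.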 It is filed as cell-based. The note with it: human whole blood, read-out: INFg Whole Blood Normalized Agonist EC50.
Method: Human Whole Blood IFN-γ Assay
Human venous whole blood (22.5 μL per well), obtained from healthy donors, was pre-treated with compounds for one hour at 37° C. in a humidified 95% air/5% CO2 incubator. The blood was stimulated with 2.5 μL anti-human CD3 and anti-CD28 mAb at a final concentration of 1 μg/mL each for 24 hours at 37° C. IFN-γ in the supernatants was measured using AlphLISA kit (Cat # AL217).
Setting [5] is: Homo sapiens, T-cell, 20 h, normalized to 3 μM reference compound with anti-CD3 plus anti-CD28 as 100% activation.
Setting [6] is: Homo sapiens, 24 h, normalized to 3 μM reference compound with anti-CD3 plus anti-CD28 as 100% activation.
The mark [7] stands for this setting: Homo sapiens, T-cell, 20 h, naïve human CD8 T cells, anti-CD3 plus anti-CD28, 3 μM reference compound = 100% activation.
The mark [8] stands for this setting: Homo sapiens, 24 h, anti-CD3 plus anti-CD28, 24 hours, 3 μM reference compound = 100% activation.
The mark [9] stands for this setting: normalized to 3 μM reference compound with anti-CD3 plus anti-CD28 as 100% activation.

Consider `CCC(c1ccc(F)c(F)c1)N1C[C@H](C)N(c2cc(=O)n(C)c3ccc(C#N)nc23)C[C@H]1C` (single isomer, unassigned) [Example 344], for which the IC50 in experiment [1] (liposome (LIPGLO) assay) and in experiment [2] (liposome (LIPGLO) assay) was 1000 nM in each case. Besides, the figures for the half-maximal effective concentration (EC50) in experiment [3] (setting [5]) and in experiment [4] (setting [6]) were 24 nM and 460 nM, respectively.

In the case of `C[C@@H]1CN(c2cc(=O)n(C)c3ccc(C#N)nc23)[C@@H](C)CN1C(c1ccc(F)cc1)c1nc(C2CC2)no1` (single isomer, unassigned) [Example 736], the figures for the IC50 in experiment [1] (DGKα liposome (LIPGLO) assay) and in experiment [2] (DGKζ liposome (LIPGLO) assay) were 160 nM and 480 nM, respectively. Moreover, the concentration giving a half-maximal response (EC50) was 25 nM in experiment [3] (setting [7]) and 150 nM in experiment [4] (setting [8]).

As for `COc1ccc(C(c2cccc(F)c2)N2C[C@H](C)N(c3cc(=O)n(C)c4ccc(C#N)nc34)C[C@H]2C)nc1` (single isomer, unassigned) [Example 687], the IC50 in experiment [1] (liposome (LIPGLO) assay) turned out to be 1600 nM; in experiment [2] (liposome (LIPGLO) assay) it was 730 nM. The 50% effective concentration (EC50) came to 17 nM in experiment [3] (setting [5]) and 270 nM in experiment [4] (setting [9]).

As to `CC[C@@H]1CN(c2cc(=O)n(C)c3ccc(C#N)nc23)[C@@H](C)CN1C(c1ccc(Cl)cc1)c1ccc(Cl)cc1` [Example 1099], the IC50 in experiment [1] (liposome (LIPGLO) assay) was determined as 1700 nM; in experiment [2] (liposome (LIPGLO) assay) it was 1500 nM. Also, the results for the EC50 in experiment [3] (setting [5]) and in experiment [4] (setting [6]) were 2.5 nM and 220 nM, respectively.

Consider `Cc1cccc(C(c2ccc(Cl)cc2)N2C[C@H](C)N(c3cc(=O)n(C)c4ccc(C#N)nc34)C[C@H]2C)n1` (single isomer, unassigned) [Example 443], for which the half-inhibitory concentration (IC50) was 1400 nM in experiment [1] (liposome (LIPGLO) assay) and 110 nM in experiment [2] (liposome (LIPGLO) assay). In addition, the EC50 stood at 94 nM in experiment [3] (setting [5]) and 370 nM in experiment [4] (setting [6]).

With `C[C@@H]1CN(c2cc(=O)n(C)c3ccc(C#N)nc23)[C@@H](C)CN1C(c1ccc(OC(F)(F)F)cc1)c1cccc(F)n1` (single isomer, unassigned) [Example 368], the IC50 was determined as 1700 nM in experiment [1] (liposome (LIPGLO) assay) and 2500 nM in experiment [2] (liposome (LIPGLO) assay). Also, the concentration for a half-maximal effect (EC50) in experiment [3] (setting [9]) came to 10 nM; in experiment [4] (setting [9]), 460 nM.

Regarding `Cc1ccc(C(c2ccc(C)cc2)N2C[C@H](C)N(c3c(C#N)c(=O)n(C)c4ccc(C#N)nc34)C[C@H]2C)cc1` [Example 806], the IC50 came out at 6300 nM in experiment [1] (DGKα liposome (LIPGLO) assay) and 390 nM in experiment [2] (DGKζ liposome (LIPGLO) assay). Moreover, the EC50 in experiment [3] (setting [7]) amounted to 18 nM; in experiment [4] (setting [8]), 690 nM.

As to `C[C@@H]1CN(c2cc(=O)n(C)c3ccc(C#N)nc23)[C@@H](C)CN1C(c1ccc(Cl)cc1)c1ncccc1F` (single isomer, unassigned) [Example 189], the IC50 in experiment [1] (liposome (LIPGLO) assay) stood at 200 nM; in experiment [2] (liposome (LIPGLO) assay), 550 nM. Moreover, the figures for the EC50 in experiment [3] (setting [5]) and in experiment [4] (setting [6]) were 100 nM and 1200 nM, respectively.

Take `C[C@@H]1CN(c2cc(=O)n(C)c3ccc(C#N)nc23)[C@@H](C)CN1Cc1c(F)cccc1F` [Example 271, 8-[(2S,5R)-4-[(2,6-difluorophenyl)methyl]-2,5-dimethylpiperazin-1-yl]-5-methyl-6-oxo-5,6-dihydro-1,5-naphthyridine-2-carbonitrile]: the IC50 in experiment [1] (liposome (LIPGLO) assay) turned out to be 130 nM; in experiment [2] (liposome (LIPGLO) assay), 1900 nM. The concentration for a half-maximal effect (EC50) came out at 550 nM in experiment [3] (setting [5]) and 1400 nM in experiment [4] (setting [6]).

Turning to `C[C@@H]1CN(c2cc(=O)n(C)c3ccc(C#N)nc23)[C@@H](C)CN1Cc1c(F)cc(Cl)cc1F` [Example 268, 8-[(2S,5R)-4-[(4-chloro-2,6-difluorophenyl)methyl]-2,5-dimethylpiperazin-1-yl]-5-methyl-6-oxo-5,6-dihydro-1,5-naphthyridine-2-carbonitrile], the concentration for half-maximal inhibition (IC50) was determined as 230 nM in experiment [1] (liposome (LIPGLO) assay) and 1200 nM in experiment [2] (liposome (LIPGLO) assay). Further, the EC50 turned out to be 54 nM in experiment [3] (setting [5]) and 1700 nM in experiment [4] (setting [6]).

With `CC[C@@H]1CN(c2cc(=O)n(C)c3ccc(C#N)nc23)[C@@H](C)CN1C(c1ccc(F)cc1)c1ncccc1F` (some centres unmarked) [Example 1104], the IC50 in experiment [1] (liposome (LIPGLO) assay) is 250 nM; in experiment [2] (liposome (LIPGLO) assay) it was 900 nM. The half-maximal effective concentration (EC50) in experiment [3] (setting [9]) was determined as 56 nM; in experiment [4] (setting [6]) it was 300 nM.

Turning to `Cc1ccc(C(c2ccc(C)c(Cl)c2)N2C[C@H](C)N(c3cc(=O)n(C)c4ccc(C#N)nc34)C[C@H]2C)nc1` (single isomer, unassigned) [Example 373], the IC50 came out at 6500 nM in experiment [1] (liposome (LIPGLO) assay) and 740 nM in experiment [2] (liposome (LIPGLO) assay). Further, the EC50 is 180 nM in experiment [3] (setting [5]) and 320 nM in experiment [4] (setting [6]).

Regarding `C[C@@H]1CN(c2cc(=O)n(C)c3ccc(C#N)nc23)[C@@H](C)CN1C(c1ccccc1)c1ccc(OC(F)(F)F)cc1` (single isomer, unassigned) [Example 222], the 50% inhibitory concentration (IC50) in experiment [1] (liposome (LIPGLO) assay) amounted to 290 nM; in experiment [2] (liposome (LIPGLO) assay) it was 710 nM. Further, the EC50 in experiment [3] (setting [9]) worked out at 46 nM; in experiment [4] (setting [9]), 680 nM.

Take `Cc1cccc(C(c2ccc(F)cc2)N2C[C@H](C)N(c3cc(=O)n(C)c4ccc(C#N)nc34)C[C@H]2C)n1` (single isomer, unassigned) [Example 204]: the half-inhibitory concentration (IC50) in experiment [1] (liposome (LIPGLO) assay) came to 1300 nM; in experiment [2] (liposome (LIPGLO) assay), 220 nM. Besides, the figures for the 50% effective concentration (EC50) in experiment [3] (setting [9]) and in experiment [4] (setting [9]) were 12 nM and 620 nM, respectively.

`C[C@@H]1CN(c2cc(=O)n(C)c3ccc(C#N)nc23)[C@@H](C)CN1C(c1ccc(F)cc1)c1ccc(C(F)(F)F)cc1` (stereo partly drawn) [Example 294, 8-[(2S,5R)-4-[(4-fluorophenyl)[4-(trifluoromethyl)phenyl]methyl]-2,5-dimethylpiperazin-1-yl]-5-methyl-6-oxo-5,6-dihydro-1,5-naphthyridine-2-carbonitrile]: the values for the IC50 in experiment [1] (liposome (LIPGLO) assay) and in experiment [2] (liposome (LIPGLO) assay) were 190 nM and 330 nM, respectively. For the same molecule, the 50% effective concentration (EC50) was determined as 20 nM in experiment [3] (setting [5]) and 560 nM in experiment [4] (setting [6]).

Regarding `C[C@@H]1CN(c2cc(=O)n(C)c3ccc(C#N)nc23)[C@@H](C)CN1Cc1cccc(F)c1` [Example 292, 8-[(2S,5R)-4-[(3-fluorophenyl)methyl]-2,5-dimethylpiperazin-1-yl]-5-methyl-6-oxo-5,6-dihydro-1,5-naphthyridine-2-carbonitrile], the IC50 in experiment [1] (liposome (LIPGLO) assay) was found to be 280 nM; in experiment [2] (liposome (LIPGLO) assay), 3000 nM. The results for the EC50 in experiment [3] (setting [5]) and in experiment [4] (setting [6]) were 1700 nM and 2200 nM, respectively.

For `C[C@@H]1CN(c2cc(=O)n(C)c3ccc(C#N)nc23)[C@@H](C)CN1C(c1ccccc1)c1c(F)cccc1F` (single isomer, unassigned) [Example 272], the IC50 in experiment [1] (liposome (LIPGLO) assay) turned out to be 990 nM; in experiment [2] (liposome (LIPGLO) assay) it was 450 nM. Besides, the 50% effective concentration (EC50) in experiment [3] (setting [5]) came to 79 nM; in experiment [4] (setting [9]), 2500 nM.

Consider `Cc1cccc(C(c2ccc(F)cc2)N2C[C@H](C)N(c3cc(=O)n(C)c4ccc(C#N)nc34)C[C@H]2C)c1` (single isomer, unassigned) [Example 223], for which the IC50 in experiment [1] (liposome (LIPGLO) assay) is 280 nM; in experiment [2] (liposome (LIPGLO) assay), 34 nM. Moreover, the figures for the EC50 in experiment [3] (setting [5]) and in experiment [4] (setting [6]) were 29 nM and 870 nM, respectively.

`C[C@@H]1CN(c2cc(=O)n(C)c3ccc(C#N)nc23)[C@@H](C)CN1Cc1ccc(F)cc1` [Example 297, 8-[(2S,5R)-4-[(4-fluorophenyl)methyl]-2,5-dimethylpiperazin-1-yl]-5-methyl-6-oxo-5,6-dihydro-1,5-naphthyridine-2-carbonitrile]: the IC50 in experiment [1] (liposome (LIPGLO) assay) came to 15 nM; in experiment [2] (liposome (LIPGLO) assay), 740 nM. Also, the EC50 turned out to be 490 nM in experiment [3] (setting [5]) and 1500 nM in experiment [4] (setting [6]).

Turning to `C[C@@H]1CN(c2cc(=O)n(C)c3ccc(C#N)nc23)[C@@H](C)CN1C(c1ccc(F)cn1)c1ccc(F)cc1F` (single isomer, unassigned) [Example 685], the IC50 in experiment [1] (liposome (LIPGLO) assay) was determined as 300 nM; in experiment [2] (liposome (LIPGLO) assay), 1000 nM. Further, the EC50 in experiment [3] (setting [5]) turned out to be 12 nM; in experiment [4] (setting [9]) it was 100 nM.
